From ChEMBL document CHEMBL5385904, “Design, synthesis and biological evaluation of seco-DSP/DCK derivatives reversing P-glycoprotein-mediated paclitaxel resistance in A2780/T cells” (Eur J Med Chem, 2023)
Active and inactive are the calls of the source. The rule behind the calls is not given here.

Columns and labels:
[1] = test system: A2780/Taxol; assay: Cytotoxicity against human A2780/Taxol cells assessed survival rate at 10 uM incubated for 48 hrs by MTT assay; format: functional
[2] = test system: A2780/Taxol; assay: Reversal of multi-drug resistance in human A2780/Taxol cells incubated for 48 hrs by MTT assay; format: functional, cell-based
[3] = test system: A2780/Taxol; assay: Reversal of multidrug resistance in human A2780/Taxol Cells assessed as reversal fold of paclitaxel IC50 at 10 uM incubated for 48 hrs by MTT assay; format: functional
[4] = test system: A2780/Taxol; assay: Reversal of multi-drug resistance in human A2780/Taxol cells at 5 to 20 uM incubated for 48 hrs by MTT assay; format: functional, cell-based; details: dose 5-20 µM
[5] = test system: A2780; assay: Reversal of drug-sensitive human A2780 cells at 2.5 to 20 uM incubated for 48 hrs in presence of paclitaxel by MTT assay; format: functional, cell-based; details: dose 2.5-20 µM
[6] = test system: A2780; assay: Cytotoxicity against human A2780 cells assessed as reduction in cell viability at 10 to 20 uM incubated for 48 hrs by MTT assay; format: functional, cell-based; details: dose 10-20 µM
[7] = test system: A2780/Taxol; assay: Effect on p-gp expression in human A2780/Taxol cells at 5 to 20 uM by Western blot analysis; format: functional, cell-based; details: dose 5-20 µM
[8] = target: T1, ATP-dependent translocase ABCB1 (Homo sapiens, UniProt P08183); assay: Inhibition of P-gp in human A2780/Taxol cells assessed as paclitaxel accumulation in cells by measuring increase in fluorescence intensity at 2.5 to 20 uM incubated for 8 hrs; format: cell-based; details: dose 2.5-20 µM
[9] = target: T1, ATP-dependent translocase ABCB1; assay: Inhibition of P-gp in human A2780/Taxol cells assessed as paclitaxel accumulation in cells by measuring increase in fluorescence intensity incubated for 8 hrs; format: cell-based; details: at 2.5 to 20 µM, dose 2.5-20 µM
[10] = target: T1, ATP-dependent translocase ABCB1; assay: Inhibition of P-gp in human A2780/Taxol cells assessed as paclitaxel accumulation in cells by measuring increase in fluorescence intensity at 5 to 20 uM incubated for 8 hrs; format: cell-based; details: dose 5-20 µM
[11] = target: T1, ATP-dependent translocase ABCB1; assay: Inhibition of P-gp in human A2780/Taxol cells assessed as paclitaxel accumulation in cells by measuring increase in fluorescence intensity at 2.5 to 10 uM incubated for 8 hrs; format: cell-based; details: dose 2.5-10 µM
[12] = target: T1, ATP-dependent translocase ABCB1; assay: Inhibition of P-gp-mediated rhodamine-123 efflux in human A2780/Taxol cells assessed as increase in fluorescence intensity at 10 uM by flow cytometric analysis; format: cell-based; details: 1 h, TDE = time-dependent effect, time < 60 min
[13] = target: T1, ATP-dependent translocase ABCB1; assay: Inhibition of P-gp-mediated rhodamine-123 efflux in human A2780/Taxol cells assessed as increase in fluorescence intensity at 10 uM measured upto 60 mins by flow cytometric analysis; format: cell-based; details: 1 h
[14] = target: T2, hERG (KCNH2) (Homo sapiens, UniProt Q12809); assay: Inhibition of hERG at 40 uM by patch clamp assay relative to control; format: toxicity
[15] = target: Voltage-gated inwardly rectifying potassium channel KCNH2 (Homo sapiens, UniProt Q12809); assay: Inhibition of hERG by patch clamp assay; format: toxicity
[16] = Stability in human microsomal fraction preincubated for 10 mins followed by NADPH addition and measured upto 60 mins by LC-MS/MS analysis; format: ADME, microsomes, Microsome; details: time < 70 min, read-out: Stability
[17] = Stability in mouse plasma assessed as parent compound remaining measured immediately by LC-MS/MS analysis; format: ADME, cell-free; details: read-out: Stability
[18] = Stability in mouse plasma assessed as parent compound remaining measured at 30 mins by LC-MS/MS analysis; format: ADME, cell-free; details: read-out: Stability
[19] = Stability in water assessed as parent compound remaining measured immediately by LC-MS/MS analysis; format: physicochemical; details: read-out: Stability
[20] = Stability in water assessed as parent compound remaining measured at 30 mins by LC-MS/MS analysis; format: physicochemical; details: read-out: Stability
[21] = test system: A2780/Taxol; assay: Reversal of multi-drug resistance in human A2780/Taxol cells at 10 to 20 uM incubated for 48 hrs by MTT assay; format: functional, cell-based; details: dose 10-20 µM
[22] = target: T2, hERG (KCNH2); assay: Inhibition of hERG at 3 uM by patch clamp assay relative to control; format: toxicity

T1 sequence (P08183 whole entry): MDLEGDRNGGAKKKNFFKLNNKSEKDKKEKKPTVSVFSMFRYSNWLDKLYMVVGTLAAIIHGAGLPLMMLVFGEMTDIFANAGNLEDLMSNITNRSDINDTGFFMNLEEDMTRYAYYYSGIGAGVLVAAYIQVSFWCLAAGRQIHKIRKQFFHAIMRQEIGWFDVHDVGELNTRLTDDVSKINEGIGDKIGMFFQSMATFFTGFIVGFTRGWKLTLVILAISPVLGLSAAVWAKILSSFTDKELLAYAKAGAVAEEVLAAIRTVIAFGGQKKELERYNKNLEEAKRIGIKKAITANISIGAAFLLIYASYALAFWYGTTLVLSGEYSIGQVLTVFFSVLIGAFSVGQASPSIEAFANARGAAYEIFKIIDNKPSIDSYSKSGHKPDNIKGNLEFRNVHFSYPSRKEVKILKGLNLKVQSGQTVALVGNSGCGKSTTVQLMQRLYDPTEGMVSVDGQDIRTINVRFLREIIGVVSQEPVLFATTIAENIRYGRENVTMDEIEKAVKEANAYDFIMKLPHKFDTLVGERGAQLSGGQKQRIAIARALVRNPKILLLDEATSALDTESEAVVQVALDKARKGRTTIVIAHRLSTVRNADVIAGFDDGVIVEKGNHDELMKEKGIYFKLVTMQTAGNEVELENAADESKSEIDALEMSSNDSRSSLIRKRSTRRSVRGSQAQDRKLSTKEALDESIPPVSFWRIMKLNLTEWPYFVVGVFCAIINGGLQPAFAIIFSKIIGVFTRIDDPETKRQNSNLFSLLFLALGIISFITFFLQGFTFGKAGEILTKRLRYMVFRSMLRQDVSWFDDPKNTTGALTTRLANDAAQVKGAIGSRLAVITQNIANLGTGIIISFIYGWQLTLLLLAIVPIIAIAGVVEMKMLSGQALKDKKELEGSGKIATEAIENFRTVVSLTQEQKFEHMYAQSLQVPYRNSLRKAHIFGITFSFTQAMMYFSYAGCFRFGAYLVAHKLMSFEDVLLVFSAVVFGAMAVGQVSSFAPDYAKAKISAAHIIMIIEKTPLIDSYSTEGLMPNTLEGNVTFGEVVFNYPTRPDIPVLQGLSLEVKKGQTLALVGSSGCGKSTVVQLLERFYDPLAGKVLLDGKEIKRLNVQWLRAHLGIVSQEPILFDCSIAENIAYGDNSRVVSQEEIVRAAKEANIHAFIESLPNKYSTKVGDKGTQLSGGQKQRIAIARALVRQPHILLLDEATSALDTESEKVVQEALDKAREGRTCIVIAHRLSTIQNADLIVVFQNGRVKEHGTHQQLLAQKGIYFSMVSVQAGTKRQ
T2 sequence (Q12809 whole entry): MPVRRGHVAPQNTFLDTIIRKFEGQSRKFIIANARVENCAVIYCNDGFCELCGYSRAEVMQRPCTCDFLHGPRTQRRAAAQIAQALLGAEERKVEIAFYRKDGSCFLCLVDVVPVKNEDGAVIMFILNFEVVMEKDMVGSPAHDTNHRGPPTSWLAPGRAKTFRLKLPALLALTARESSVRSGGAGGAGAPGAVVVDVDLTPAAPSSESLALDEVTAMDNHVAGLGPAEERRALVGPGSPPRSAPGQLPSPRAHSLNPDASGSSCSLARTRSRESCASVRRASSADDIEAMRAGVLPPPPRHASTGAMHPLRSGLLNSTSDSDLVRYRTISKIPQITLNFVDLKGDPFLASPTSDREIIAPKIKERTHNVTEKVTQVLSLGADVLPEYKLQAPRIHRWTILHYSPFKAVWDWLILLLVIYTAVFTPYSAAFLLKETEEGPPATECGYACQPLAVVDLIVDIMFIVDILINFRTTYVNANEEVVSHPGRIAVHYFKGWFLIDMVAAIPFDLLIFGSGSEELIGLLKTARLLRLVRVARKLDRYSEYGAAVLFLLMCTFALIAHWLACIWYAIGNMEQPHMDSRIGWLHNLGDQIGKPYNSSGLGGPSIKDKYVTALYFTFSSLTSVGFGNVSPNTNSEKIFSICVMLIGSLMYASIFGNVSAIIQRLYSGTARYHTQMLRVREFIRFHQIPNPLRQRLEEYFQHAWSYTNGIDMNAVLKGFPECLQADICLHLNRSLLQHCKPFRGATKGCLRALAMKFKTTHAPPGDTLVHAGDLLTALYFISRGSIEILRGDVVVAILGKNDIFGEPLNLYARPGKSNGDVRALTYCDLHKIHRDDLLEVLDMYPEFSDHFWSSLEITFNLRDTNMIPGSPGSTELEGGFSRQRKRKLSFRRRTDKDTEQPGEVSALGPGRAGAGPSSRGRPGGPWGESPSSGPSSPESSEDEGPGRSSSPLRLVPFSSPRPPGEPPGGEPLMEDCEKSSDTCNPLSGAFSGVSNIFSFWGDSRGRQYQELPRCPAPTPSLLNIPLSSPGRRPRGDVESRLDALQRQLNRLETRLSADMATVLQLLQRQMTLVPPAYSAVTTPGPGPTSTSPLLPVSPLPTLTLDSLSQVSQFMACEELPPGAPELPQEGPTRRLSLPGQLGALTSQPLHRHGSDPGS
Chain of Voltage-gated inwardly rectifying potassium channel KCNH2 (Q12809 whole entry): as above

In the case of `COc1cc(CC(=O)OCc2c(OC(C)C)ccc3c(C)c(Cc4ccccc4)c(=O)oc23)cc(OC)c1OC`, the Cell survival rate [1] is reported as 81%, the IC50 [2] is reported as 10 nM and the Activity ([2]; dose 2.5-20 µM) is reported as “Dose-Dependent Effect”. The “fold change (FC)” value [3] was 425, the Activity [4] was “Active” and the Activity [5] was “Active”. The Activity [6] was “Active”, the Activity [7] was “Active” and the “inhibition (INH)” value [8] was “Active”. The “inhibition (INH)” value [9] was “Dose-Dependent Effect”, the “inhibition (INH)” value [10] was “Active” and the “inhibition (INH)” value [11] was “Active”. The “inhibition (INH)” value [12] was “Tde”, the “inhibition (INH)” value [13] was “Active” and the inhibition at 40 µM [14] was 19%. For the same compound, the IC50 [15] was > 40000 nM, the remaining at 1 h [16] was 0.877% and the remaining at 0 min [17] was 100%. It also gave a remaining at 0.5 h [18] of 0.72%, a remaining at 0 min [19] of 100% and a remaining at 0.5 h [20] of 89.1%.

For `CCc1cc(=O)c2ccc(OC(C)C)c(CNC(=O)/C=C/c3ccc(OC)cc3)c2o1`, the Cell survival rate [1] was 79%, the IC50 [2] was 31 nM and the “fold change (FC)” value [3] was 142. For the same compound, the remaining at 1 h [16] was 29.4%.

With `CCOc1ccc2c(C)cc(=O)oc2c1CNC(=O)/C=C/c1ccc(OC)cc1` the Cell survival rate [1] was 96%, the IC50 [2] was 29 nM and the “fold change (FC)” value [3] was 150. For the same compound, the inhibition at 40 µM [14] was 32.5%, the IC50 [15] was > 40000 nM and the remaining at 1 h [16] was 44.3%.

With `COc1ccc(CCN(C)CCCC(C#N)(c2ccc(OC)c(OC)c2)C(C)C)cc1OC` (stereo not drawn) [VERAPAMIL] the Cell survival rate [1] was 81%, the Activity [21] was “Active” and the Activity [5] was “Active”. The Activity [6] was “Active”.

For `COc1cc2c(cc1OC)CN(CCc1ccc(NC(=O)c3cc(OC)c(OC)cc3NC(=O)c3cnc4ccccc4c3)cc1)CC2` [TARIQUIDAR], the Activity [21] was “Active”, the Activity [5] was “Active” and the Activity [6] was “Active”. The “inhibition (INH)” value [10] was “Active”.

With `CCOc1ccc2c(=O)cc(CC)oc2c1CNC(=O)/C=C/c1ccc(OC)cc1` the Cell survival rate [1] was 91%, the IC50 [2] was 29 nM and the “fold change (FC)” value [3] was 153. It also gave a remaining at 1 h [16] of 11.8%.

`COc1cc(N)c(Cl)cc1C(=O)NC1CCN(CCCOc2ccc(F)cc2)CC1OC` (stereo not drawn) [CISAPRIDE] gave an inhibition at 3 µM [22] of 98%.

For `Cc1c(Cc2ccc(F)cc2)c(=O)oc2c(COC(=O)/C=C/c3ccccc3)c(OC(C)C)ccc12`, the Cell survival rate [1] was 90%, the IC50 [2] was 294 nM and the “fold change (FC)” value [3] was 15.

In the case of `Cc1c(Cc2ccccc2)c(=O)oc2c(COC(=O)c3ccc(F)cc3)c(OC(C)C)ccc12`, the Cell survival rate [1] is reported as 82%, the IC50 [2] is reported as 86 nM and the “fold change (FC)” value [3] is reported as 51.

For `COc1cc(CC(=O)OCc2c(OC(C)C)ccc3c(C)cc(=O)oc23)cc(OC)c1OC`, the Cell survival rate [1] was 94%, the IC50 [2] was 107 nM and the “fold change (FC)” value [3] was 41.
